Laboratory results from ChEMBL document CHEMBL1201862, “PubChem BioAssay data set” (2004).
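Each compound was tested at five concentrations against cells in 96-well plates for 48 hours. GI50: concentration for 50% inhibition of growth.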 Active and inactive are the calls of the source. No stated cut-off is given here; in the data, active = GI50 up to about 1.1 µM and inactive = higher.

Experiments:
Assay in all cases: growth of human tumour cells (NCI), 48 h
PC-3 = tested on: PC-3
HL-60 = tested on: HL-60
IGROV-1 = tested on: IGROV-1
NCI-H23 = tested on: NCI-H23
T47D = tested on: T47D
SK-MEL-5 = tested on: SK-MEL-5
OVCAR-4 = tested on: OVCAR-4
MDA-MB-231 = tested on: MDA-MB-231
KM12 = tested on: KM12
HCC 2998 = tested on: HCC 2998
CAKI-1 = tested on: CAKI-1
Malme-3M = tested on: Malme-3M
UO-31 = tested on: UO-31
SR = tested on: SR
OVCAR-8 = tested on: OVCAR-8
NCI-H460 = tested on: NCI-H460
SF-539 = tested on: SF-539
SNB-19 = tested on: SNB-19
OVCAR-3 = tested on: OVCAR-3
MDA-N = tested on: MDA-N

Structure (SMILES) | GI50 (PC-3) | GI50 (HL-60) | GI50 (IGROV-1) | GI50 (NCI-H23) | GI50 (T47D) | GI50 (SK-MEL-5) | GI50 (OVCAR-4) | GI50 (MDA-MB-231) | GI50 (KM12) | GI50 (HCC 2998) | GI50 (CAKI-1) | GI50 (Malme-3M) | GI50 (UO-31) | GI50 (SR) | GI50 (OVCAR-8) | GI50 (NCI-H460) | GI50 (SF-539) | GI50 (SNB-19) | GI50 (OVCAR-3) | GI50 (MDA-N)
CCOC(=O)c1cc(C)nc2c1c(=O)n(-c1ccccc1)c(=O)n2CCCCN1CCN(c2ccccc2)CC1 | 47.9 µM (inactive) | 27 µM (inactive) | > 100 µM (inactive) | 77.3 µM (inactive) | 24.3 µM (inactive) | 38.6 µM (inactive) | 34 µM (inactive) | 48.1 µM (inactive) | 61.8 µM (inactive) | 41.1 µM (inactive) | 1.53 µM (inactive) | > 100 µM (inactive) | 6.17 µM (inactive) | 19 µM (inactive) | > 100 µM (inactive) | – | – | – | – | –
COc1ccc(CNc2nc(NCc3ccc(OC)c(OC)c3)nc(NC3CCCCC3)n2)cc1 | 3.77 µM (inactive) | 2.77 µM (inactive) | 4.49 µM (inactive) | 2.86 µM (inactive) | 4.48 µM (inactive) | 0.716 µM (active) | 9.06 µM (inactive) | 5.13 µM (inactive) | 1.21 µM (inactive) | – | 3.17 µM (inactive) | 37.2 µM (inactive) | 5.18 µM (inactive) | 0.611 µM (active) | 7.41 µM (inactive) | 2.8 µM (inactive) | 2.29 µM (inactive) | > 100 µM (inactive) | 5.38 µM (inactive) | –
Cc1cc(C(=O)CSC(=S)SC(C)(C)C)ccc1Cl | 29.8 µM (inactive) | 18.4 µM (inactive) | 33.1 µM (inactive) | 29.5 µM (inactive) | – | 17.8 µM (inactive) | 31 µM (inactive) | 19.7 µM (inactive) | 20 µM (inactive) | 16.7 µM (inactive) | 34.2 µM (inactive) | 16.8 µM (inactive) | 18.1 µM (inactive) | 16.9 µM (inactive) | 32.1 µM (inactive) | 14.7 µM (inactive) | 18.7 µM (inactive) | 16 µM (inactive) | 16.4 µM (inactive) | 15.8 µM (inactive)
CC(O)CCCCC(O)CCC[C@H](O)[C@H]1CCC([C@H]2CCC([C@@H](O)CCCCCCCCCCCCC3=C[C@H](C)OC3=O)O2)O1 (stereo partly drawn) | 10.7 µM (inactive) | 9.79 µM (inactive) | 10.5 µM (inactive) | 8.65 µM (inactive) | – | 7.93 µM (inactive) | 12.6 µM (inactive) | 10.4 µM (inactive) | 5.48 µM (inactive) | 13.2 µM (inactive) | 9.84 µM (inactive) | – | 9.44 µM (inactive) | 0.0075 µM (active) | 10.1 µM (inactive) | 8.22 µM (inactive) | 10.4 µM (inactive) | 10.3 µM (inactive) | 9.51 µM (inactive) | 10.6 µM (inactive)
O=C(Nc1ccc(N=C=S)cc1Cl)c1cc(Br)cc(Br)c1O | 19 µM (inactive) | 34.5 µM (inactive) | 19.4 µM (inactive) | 26.7 µM (inactive) | 39.7 µM (inactive) | 23.9 µM (inactive) | 27.1 µM (inactive) | 21.5 µM (inactive) | 27 µM (inactive) | – | 43.1 µM (inactive) | 37.8 µM (inactive) | 30.3 µM (inactive) | 28.6 µM (inactive) | 18.2 µM (inactive) | 32.6 µM (inactive) | 23.9 µM (inactive) | 24.6 µM (inactive) | 36.7 µM (inactive) | –
COc1cc(C2c3cc4c(cc3C(=O)C3CCC(=O)N32)OCO4)cc(OC)c1O (stereo not drawn) | > 50 µM (inactive) | > 50 µM (inactive) | > 50 µM (inactive) | > 50 µM (inactive) | > 50 µM (inactive) | – | > 50 µM (inactive) | – | > 50 µM (inactive) | – | – | – | > 50 µM (inactive) | > 50 µM (inactive) | > 50 µM (inactive) | > 50 µM (inactive) | > 50 µM (inactive) | > 50 µM (inactive) | > 50 µM (inactive) | > 50 µM (inactive)
Oc1cc(-c2cccc(Cl)c2)nc2ncccc12 | 0.0248 µM (active) | 0.0142 µM (active) | 0.0813 µM (active) | 1.54 µM (inactive) | – | 0.0387 µM (active) | > 66.7 µM (inactive) | 0.57 µM (active) | 0.0515 µM (active) | 0.0771 µM (active) | 0.101 µM (active) | 0.139 µM (active) | 2.52 µM (inactive) | 0.0378 µM (active) | 0.377 µM (active) | 0.0605 µM (active) | 0.0532 µM (active) | 0.192 µM (active) | 0.0466 µM (active) | 0.0132 µM (active)
CC(C)C(=O)/C=C/S/C=C/C(=O)C(C)C | – | – | 19.5 µM (inactive) | 2.59 µM (inactive) | 5.16 µM (inactive) | 5.83 µM (inactive) | 6.17 µM (inactive) | 3.7 µM (inactive) | 30.3 µM (inactive) | – | 3.56 µM (inactive) | 6.7 µM (inactive) | 4.93 µM (inactive) | – | 2.7 µM (inactive) | 10.8 µM (inactive) | 16.8 µM (inactive) | 28.3 µM (inactive) | 3.62 µM (inactive) | –
COc1cc(C(C)=O)cc(C(=O)N(C(C)C)C(C)C)c1[Si](C)(C)C | > 100 µM (inactive) | 24.3 µM (inactive) | > 100 µM (inactive) | 52.8 µM (inactive) | > 100 µM (inactive) | > 100 µM (inactive) | > 100 µM (inactive) | > 100 µM (inactive) | > 100 µM (inactive) | – | > 100 µM (inactive) | – | > 100 µM (inactive) | – | > 100 µM (inactive) | > 100 µM (inactive) | > 100 µM (inactive) | > 100 µM (inactive) | > 100 µM (inactive) | > 100 µM (inactive)
CCOC(=O)C1(C(=O)OCC)C[C@@H](C)[C@@H](O)C1 | > 100 µM (inactive) | 89.9 µM (inactive) | > 100 µM (inactive) | > 100 µM (inactive) | – | > 100 µM (inactive) | > 100 µM (inactive) | > 100 µM (inactive) | > 100 µM (inactive) | – | > 100 µM (inactive) | 72.1 µM (inactive) | > 100 µM (inactive) | > 100 µM (inactive) | > 100 µM (inactive) | > 100 µM (inactive) | > 100 µM (inactive) | > 100 µM (inactive) | > 100 µM (inactive) | > 100 µM (inactive)
c1ccc(Nc2nnc(CCCCCCCCc3nnc(Nc4ccccc4)o3)o2)cc1 | > 100 µM (inactive) | > 100 µM (inactive) | 60.3 µM (inactive) | > 100 µM (inactive) | – | > 100 µM (inactive) | > 100 µM (inactive) | > 100 µM (inactive) | > 100 µM (inactive) | 51.6 µM (inactive) | > 100 µM (inactive) | > 100 µM (inactive) | > 100 µM (inactive) | – | > 100 µM (inactive) | > 100 µM (inactive) | > 100 µM (inactive) | > 100 µM (inactive) | > 100 µM (inactive) | –
COc1ccc2cc3[n+](cc2c1OC)CCc1cc2c(cc1-3)OCO2 [BERBERINE CHLORIDE] | 26.9 µM (inactive) | 13.6 µM (inactive) | 40.6 µM (inactive) | 7.35 µM (inactive) | 10.3 µM (inactive) | 4.95 µM (inactive) | – | 36.1 µM (inactive) | 7.71 µM (inactive) | – | – | 6.68 µM (inactive) | – | – | 12.7 µM (inactive) | 12.2 µM (inactive) | 35.3 µM (inactive) | 8.38 µM (inactive) | – | –
CCN1CCCCC(=N\O)/C(=N/O)CCCC1 | > 100 µM (inactive) | > 100 µM (inactive) | > 100 µM (inactive) | > 100 µM (inactive) | – | > 100 µM (inactive) | > 100 µM (inactive) | > 100 µM (inactive) | > 100 µM (inactive) | – | > 100 µM (inactive) | > 100 µM (inactive) | > 100 µM (inactive) | > 100 µM (inactive) | > 100 µM (inactive) | > 100 µM (inactive) | > 100 µM (inactive) | > 100 µM (inactive) | > 100 µM (inactive) | > 100 µM (inactive)
COC(=O)C12OCC34C(CC5C(C)C6=CC(=O)OC6=CC5(C)C3C(O)C1O)OC(=O)C(O)C24 (stereo not drawn) | – | 0.314 µM (active) | 0.23 µM (active) | 0.238 µM (active) | – | 0.0794 µM (active) | 1.25 µM (inactive) | – | 1.21 µM (inactive) | 0.156 µM (active) | 4.08 µM (inactive) | 0.159 µM (active) | 16.1 µM (inactive) | < 0.01 µM (active) | 0.935 µM (active) | 0.204 µM (active) | 0.103 µM (active) | 0.0371 µM (active) | 0.655 µM (active) | –
O=C(O)C[n+]1cn(NC(=O)Cc2ccccc2)cn1 | – | – | > 10 µM (inactive) | > 10 µM (inactive) | > 10 µM (inactive) | > 10 µM (inactive) | > 10 µM (inactive) | > 10 µM (inactive) | > 10 µM (inactive) | > 10 µM (inactive) | > 10 µM (inactive) | > 10 µM (inactive) | > 10 µM (inactive) | > 10 µM (inactive) | > 10 µM (inactive) | > 10 µM (inactive) | > 10 µM (inactive) | > 10 µM (inactive) | > 10 µM (inactive) | > 10 µM (inactive)
S=C1NC2=C(COc3ccccc32)C(c2ccc(Cl)cc2)N1 (stereo not drawn) | 13.4 µM (inactive) | 13.9 µM (inactive) | 16.6 µM (inactive) | 21.7 µM (inactive) | 18.2 µM (inactive) | 15 µM (inactive) | – | 17.4 µM (inactive) | 16.2 µM (inactive) | – | – | – | 18.4 µM (inactive) | – | 21.6 µM (inactive) | – | 16.6 µM (inactive) | 22.9 µM (inactive) | 15.3 µM (inactive) | 16.4 µM (inactive)
